Measurements: the supplement of paper PMC11281043
± gives the standard deviation of the averaged measurements.

Experiments:
Danio rerio embryo/larva [1] = assay: BMC mortality; max tested concentration (log10 uM): 2; higher = less potent; details: exposure: 6-8 hpf to 5 dpf, scored at 6 dpf
Description: (§1)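 Zebrafish embryos (with chorion) were exposed from 6-8 hpf to each PFAS (8-point half-log series, top concentration up to 100 uM, 0.4% DMSO, sealed plates, 26 C; n = 6 embryos per concentration), rinsed at 5 dpf and scored at 6 dpf by two blinded observers for mortality, hatching and malformations. Endpoint scores are the % of living larvae affected (dead larvae excluded; […]). Curves were fitted with tcpl (cutoff 16%), and the BMC is the concentration at a benchmark response of 21.6%.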

Danio rerio embryo/larva [2] = assay: max % larvae dead across tested concentrations; max tested concentration (log10 uM): 2; higher = more toxic; extreme values may be limits of the assay; details: exposure: 6-8 hpf to 5 dpf, scored at 6 dpf
Danio rerio embryo/larva [3] = assay: BMC craniofacial defects; higher = less potent; details: max tested concentration (log10 uM): 2; exposure: 6-8 hpf to 5 dpf, scored at 6 dpf
Description: as §1

Danio rerio embryo/larva [4] = assay: BMC any abnormality; max tested concentration (log10 uM): 2; higher = less potent; details: exposure: 6-8 hpf to 5 dpf, scored at 6 dpf
Outline: (§2)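 Wild-type zebrafish embryos with chorions were placed one per well at 6–8 hpf in 200 μL 10% Hanks' and dosed with an 8-point half-log DMSO series (0.4% DMSO final). Plates were sealed, held at 26 °C with n = 6 per concentration, and larvae were rinsed at 5 dpf. At 6 dpf two blinded assessors scored mortality, hatching and malformations; scores are % of living larvae affected (mortality as % dead), unnormalised. Benchmark concentration was fitted in tcpl (bounded models, lowest AIC) at a benchmark response of 1.349 × baseline standard deviation.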

Danio rerio embryo/larva [5] = assay: BMC edema; higher = less potent; details: exposure: 6-8 hpf to 5 dpf, scored at 6 dpf
Outline: as §2

Danio rerio embryo/larva [6] = assay: max % larvae with any abnormality across tested concentrations; max tested concentration (log10 uM): 2; higher = more toxic; extreme values may be limits of the assay; details: exposure: 6-8 hpf to 5 dpf, scored at 6 dpf
Danio rerio embryo/larva [7] = assay: max % larvae unhatched across tested concentrations; max tested concentration (log10 uM): 2; higher = more toxic; details: exposure: 6-8 hpf to 5 dpf, scored at 6 dpf
Danio rerio embryo/larva [8] = assay: BMC swim bladder non-inflation; higher = less potent; details: exposure: 6-8 hpf to 5 dpf, scored at 6 dpf
Outline: as §2

Danio rerio embryo/larva [9] = assay: max % larvae unhatched across tested concentrations; max tested concentration (log10 uM): 1.60206; higher = more toxic; details: exposure: 6-8 hpf to 5 dpf, scored at 6 dpf
Danio rerio embryo/larva [10] = assay: max % larvae dead across tested concentrations; max tested concentration (log10 uM): 1.60206; higher = more toxic; extreme values may be limits of the assay; details: exposure: 6-8 hpf to 5 dpf, scored at 6 dpf
Danio rerio embryo/larva [11] = assay: max % larvae with any abnormality across tested concentrations; max tested concentration (log10 uM): 1.60206; higher = more toxic; extreme values may be limits of the assay; details: exposure: 6-8 hpf to 5 dpf, scored at 6 dpf
Danio rerio embryo/larva [12] = assay: BMC abnormal position; higher = less potent; details: exposure: 6-8 hpf to 5 dpf, scored at 6 dpf
Description: as §1

Danio rerio embryo/larva [13] = assay: BMC blood pooling; max tested concentration (log10 uM): 2; higher = less potent; details: exposure: 6-8 hpf to 5 dpf, scored at 6 dpf
Description: as §1

Danio rerio embryo/larva [14] = assay: BMC spinal defects; higher = less potent; details: max tested concentration (log10 uM): 2; exposure: 6-8 hpf to 5 dpf, scored at 6 dpf
Description: as §1

Danio rerio embryo/larva [15] = assay: max % larvae unhatched across tested concentrations; max tested concentration (log10 uM): 1.30103; higher = more toxic; details: exposure: 6-8 hpf to 5 dpf, scored at 6 dpf
Danio rerio embryo/larva [16] = assay: max % larvae with any abnormality across tested concentrations; max tested concentration (log10 uM): 1.30103; higher = more toxic; extreme values may be limits of the assay; details: exposure: 6-8 hpf to 5 dpf, scored at 6 dpf
Danio rerio embryo/larva [17] = assay: max % larvae dead across tested concentrations; max tested concentration (log10 uM): 1.30103; higher = more toxic; extreme values may be limits of the assay; details: exposure: 6-8 hpf to 5 dpf, scored at 6 dpf
[18] = max tested concentration (log10 uM): 2
[19] = max tested concentration (log10 uM): 1.47712

Row | SMILES | BMC mortality (Danio rerio embryo/larva [1]) | max % larvae dead across tested concentrations (Danio rerio embryo/larva [2]) | BMC craniofacial defects (Danio rerio embryo/larva [3]) | BMC any abnormality (Danio rerio embryo/larva [4]) | BMC edema (Danio rerio embryo/larva [5]; [18]) | max % larvae (Danio rerio embryo/larva [6]) | max % larvae unhatched across tested concentrations (Danio rerio embryo/larva [7]) | BMC swim bladder non-inflation (Danio rerio embryo/larva [8]; [18]) | BMC abnormal position (Danio rerio embryo/larva [12]; [18]) | further results
1 | OCCCCC(F)(F)C(F)(F)C(F)(F)C(F)(F)F [4:4 Fluorotelomer alcohol] | 86.5 µM | 41.7% | 34.7 µM | 25.5 µM | 25.8 µM | 97.9% | 0% | 27.1 µM | – | –
2 | COC(=O)C(F)(F)C(F)(F)OC(F)(C(F)(F)F)C(F)(F)OC(F)=C(F)F (stereo not given) [Methyl perfluoro(3-(1-ethenyloxypropan-2-yloxy)propanoate)] | – | – | – | – | – | – | – | – | – | max % larvae unhatched across tested concentrations (Danio rerio embryo/larva [9]): 0%; max % larvae dead across tested concentrations (Danio rerio embryo/larva [10]): 0%; max % larvae (Danio rerio embryo/larva [11]): 8.33%
3 | FC(F)(F)C(F)(F)C(F)(F)C(F)(F)C(F)(F)C(F)(F)C(F)(F)C(F)(F)CCS [2-(Perfluorooctyl)ethanthiol] | – | – | – | – | – | – | – | – | – | max % larvae unhatched across tested concentrations (Danio rerio embryo/larva [9]): 0%; max % larvae dead across tested concentrations (Danio rerio embryo/larva [10]): 0%; max % larvae (Danio rerio embryo/larva [11]): 10.4%
4 | OCC(F)(F)C(F)(F)C(F)(F)C(F)(F)C(F)(F)C(F)(F)CO [1H,1H,8H,8H-Perfluorooctane-1,8-diol] | – | 0% | 91 µM | 41.3 µM | 50.7 µM | 91.7% | 0% | 10.4 µM | – | –
5 | FC(F)(I)C(F)(F)C(F)(F)C(F)(F)I [Perfluoro-1,4-diiodobutane] | – | 16.7% | 74.2 µM | 14.8 µM | 20.6 µM | 70.8% | 0% | 25.6 µM | – | –
6 | O=S(=O)(O)C(F)(F)C(F)(F)C(F)(F)C(F)(F)C(F)(F)C(F)(F)F [Perfluorohexanesulfonic acid] | – | – | 78.9 µM | 30.2 µM | 31.7 µM | 100% | 0% | 34.1 µM | 90.6 µM | –
7 | O=C(O)C(F)(F)C(F)(F)C(F)(F)C(F)(F)C(F)(F)C(F)(F)C(F)(F)C(F)(F)F [Perfluorononanoic acid] | 73.9 µM | 75% | – | 25.5 µM | 28 µM | 100% | 0% | 25.5 µM | 87.8 µM | –
8 | O=C(O)CCC(F)(F)C(F)(F)C(F)(F)C(F)(F)C(F)(F)F [2H,2H,3H,3H-Perfluorooctanoic acid] | 24.8 µM | 100% | – | 8.77 µM | – | 100% | 0% | – | – | BMC edema (Danio rerio embryo/larva [5]; [19]): 9.38 µM; BMC abnormal position (Danio rerio embryo/larva [12]; [19]): 12.2 µM; BMC swim bladder non-inflation (Danio rerio embryo/larva [8]; [19]): 9.28 µM
9 | O=P(O)(O)CCC(F)(F)C(F)(F)C(F)(F)C(F)(F)C(F)(F)C(F)(F)C(F)(F)C(F)(F)F [((Perfluorooctyl)ethyl)phosphonic acid] | 10.4 µM | 100% | – | 0.578 µM | 1.37 µM | 100% | 0% | 0.92 µM | 63.6 µM | –
10 | O=S(=O)(OCC(F)(F)F)C(F)(F)C(F)(F)C(F)(F)C(F)(F)F [2,2,2-Trifluoroethyl perfluorobutanesulfonate] | – | 0% | – | 29.4 µM | 32.7 µM | 95.5% | 0% | 77 µM | – | BMC blood pooling (Danio rerio embryo/larva [13]): 35.5 µM
11 | FC(F)(I)C(F)(F)C(F)(F)C(F)(F)C(F)(F)C(F)(F)I [1,6-Diiodoperfluorohexane] | – | – | 26.4 ± 3.9 µM | 5.18 ± 4.7 µM | 6.97 ± 5.2 µM | 100% | 0% | 6.49 ± 3.8 µM | 14.9 ± 17 µM | BMC spinal defects (Danio rerio embryo/larva [14]): 7.34 µM; BMC blood pooling (Danio rerio embryo/larva [13]): 14.5 ± 16 µM
12 | CCCCCCCCC(F)(F)C(F)(F)C(F)(F)C(F)(F)C(F)(F)C(F)(F)F [1-(Perfluorohexyl)octane] | – | – | – | – | – | – | – | – | – | max % larvae unhatched across tested concentrations (Danio rerio embryo/larva [9]): 0%; max % larvae dead across tested concentrations (Danio rerio embryo/larva [10]): 0%; max % larvae (Danio rerio embryo/larva [11]): 0%
13 | O=S(=O)(Cl)C(F)(F)C(F)(F)C(F)(F)C(F)(F)C(F)(F)C(F)(F)C(F)(F)C(F)(F)F [Perfluoro-1-octanesulfonyl chloride] | 77.9 µM | 83.3% | – | 10.4 µM | 29.4 µM | 100% | 0% | 10.4 µM | 92 µM | BMC spinal defects (Danio rerio embryo/larva [14]): 95.8 µM
14 | O=C(O)C(F)(F)C(F)(F)C(F)(F)C(F)(F)C(F)(F)C(F)(F)C(F)(F)C(F)(F)C(F)(F)C(F)(F)C(F)(F)C(F)(F)F [Perfluorotridecanoic acid] | – | – | – | – | – | – | – | – | – | max % larvae unhatched across tested concentrations (Danio rerio embryo/larva [15]): 0%; max % larvae (Danio rerio embryo/larva [16]): 16.7%; max % larvae dead across tested concentrations (Danio rerio embryo/larva [17]): 0%
